According to patent US5846720A, “Methods of determining chemicals that modulate expression of genes associated with cardiovascular disease” (Oncogene Science, Inc., priority 1996, dated 1998):
Where two headings read alike, the source gives them in different places.

Key:
G-CSF promoter = assay: G-CSF promoter/luciferase reporter assay (high-throughput screen I), G21 cells; conditions: for scored as positive in repeat assays (G-CSF): 48 independent luciferase assays, same day; for GCSF fold induction relative to solvent control: transcriptional activators; for GCSF fold induction relative to solvent control / GCSF fold inhibition relative to solvent control: Table 2, 6 h incubation; for GCSF fold inhibition relative to solvent control: transcriptional inhibitors
MMTV promoter = assay: MMTV promoter/luciferase reporter assay (high-throughput screen I, control for specificity), M10 cells; assay type: cell-based, mouse; conditions: for MMTV fold induction relative to solvent control: transcriptional activators, original high-throughput assay
Protocol: pMluci and pSV2Neo, an antibiotic resistance plasmid (84), were co-transfected into NIH/3T3 mouse fibroblast cells using the calcium phosphate precipitation method (85) with a commercially available kit (Pharmacia, Piscataway N.J.). Two days later, cells were transferred to media containing 0.4 mg/ml G418 and were grown for an additional 10-14 days. G418-resistant clones were isolated by standard methods. Once sufficient cell numbers were obtained, clones were analyzed based on several criteria: constitutive luciferase production, induction of luciferase expression by dexamethasone ([…], Sigma, St. Louis, Mo.), satisfactory attachment to microtiter plates used in the high-throughput screen (see section G) and acceptable standard deviation in multiple luciferase expression assays (see below for assay protocol). This analysis was carried out using the luciferase assay conditions described above. Of the clones which satisfied the above criteria for the high throughput screen, one clone, M10, was selected for use.

hGH promoter = assay: hGH promoter/luciferase reporter assay (high-throughput screen I), 532 cells; assay type: cell-based, rat; conditions: for hGH fold induction relative to solvent control: transcriptional activators
Text: 6. a GC rat pituitary cell line, transfected with the growth hormone reporter plasmid, designated 532, deposited under ATCC Accession No. CRL 10663.

[1] = Table 2, 6 h incubation, 360 min
[2] = transcriptional inhibitors, Table 2, 6 h incubation

| SMILES | hGH fold induction relative to solvent control (hGH promoter; Table 2, 6 h incubation) [fold] | MMTV fold induction relative to solvent control (MMTV promoter; Table 2, 6 h incubation) [fold] | GCSF fold induction relative to solvent control (G-CSF promoter) [fold] | hGH fold inhibition relative to solvent control (hGH promoter; [2]) [fold] | MMTV fold inhibition relative to solvent control (MMTV promoter; [2]) [fold] | GCSF fold inhibition relative to solvent control (G-CSF promoter) [fold] | also measured |
| --- | --- | --- | --- | --- | --- | --- | --- |
| CC(=O)n1ccnc1 [#58] | – | – | – | – | – | – | scored as positive in repeat assays (G-CSF) (G-CSF promoter): scored as positives in every single one of these assays |
| CN(C)c1ccc2cc3ccc(N(C)C)cc3nc2c1 [#80] | – | – | – | – | – | – | activation of the G-CSF promoter (dose response) (G-CSF promoter; G21 cells): specifically activated the G-CSF promoter; EC50 (G-CSF promoter; read-out: ED50 (concentration of chemical resulting in 50% maximal stimulation), G-CSF reporter cell line G21, range over the three chemicals): 5 to 70 µM |
| c1ccc(-c2cccc(-c3ccccn3)n2)nc1 [#453] | – | – | – | – | – | – | effect of replacing DMSO by methanol on MMTV activation (MMTV promoter; chemical dissolved in methanol): did not affect its ability to activate the MMTV promoter; MMTV fold induction relative to solvent control (MMTV promoter; [1]): 13.3 fold |
| CC(=O)N(C)c1ccc(N)cc1 [#1374] | – | – | – | – | – | – | scored as positive in repeat assays (G-CSF) (G-CSF promoter): scored as positives in every single one of these assays |
| O=NN(O)c1ccccc1 [#1783] | – | – | – | – | – | – | scored as positive in repeat assays (G-CSF) (G-CSF promoter): scored as positive only in half of the 48 repeat assays |
| CC(=O)c1c(C)cc(NC(C)(C)C)nc1NC(C)(C)C [Chemical 40] | 0.62 | 0.27 | 5.62 | – | – | – | – |
| CC(=O)c1ccc[nH]1 [Chemical 70] | 9.26 | 0.85 | 0.43 | – | – | – | – |
| CN(C)c1ccc2cc3ccc(N(C)C)cc3nc2c1 [Chemical 80] | 0.66 | 0.83 | 5.87 | – | – | – | – |
| CN(C)c1ccc(C(=N)c2ccc(N(C)C)cc2)cc1 [Chemical 183] | – | – | – | 4.00 | 0.70 | 0.72 | – |
| O=C(c1ccccc1)c1ccncc1 [Chemical 209] | – | – | – | 1.08 | 0.81 | 6.66 | – |
| CCOC(=O)N1C(=O)c2ccccc2C1=O [Chemical 237] | 0.06 | 0.62 | 4.77 | – | – | – | – |
| Cc1c(C(=O)O)c(O)cc2c1C(=O)c1c(O)c([C@@H]3O[C@H](CO)[C@@H](O)[C@H](O)[C@H]3O)c(O)c(O)c1C2=O [Chemical 240] | – | – | – | 5.26 | 0.80 | 0.63 | – |
| ClCCN1CCCCC1 [Chemical 254] | 0.90 | 0.98 | 4.09 | – | – | – | – |
| NC(=O)N1c2ccccc2CCc2ccccc21 [Chemical 299] | 5.46 | 0.47 | 0.53 | – | – | – | – |
| CCn1c(=O)[nH]c2ccccc21 [Chemical 322] | 11.18 | 1.12 | 0.60 | – | – | – | – |
| O=c1c(O)c(-c2ccc(O)c(O)c2)oc2cc(O)ccc12 [Chemical 325] | 5.42 | 1.0 | 0.14 | – | – | – | – |
| Nc1nc(N)nc(N)n1 [Chemical 364] | 1.18 | 1.07 | 3.67 | – | – | – | – |

| SMILES | hGH fold induction relative to solvent control (hGH promoter; Table 2, 6 h incubation) [fold] | MMTV fold induction relative to solvent control (MMTV promoter; Table 2, 6 h incubation) [fold] | GCSF fold induction relative to solvent control (G-CSF promoter) [fold] | hGH fold inhibition relative to solvent control (hGH promoter; [2]) [fold] | MMTV fold inhibition relative to solvent control (MMTV promoter; [2]) [fold] | GCSF fold inhibition relative to solvent control (G-CSF promoter) [fold] | also measured |
| --- | --- | --- | --- | --- | --- | --- | --- |
| O=c1c(O)c(-c2ccc(O)cc2O)oc2cc(O)cc(O)c12 [Chemical 371] | – | – | – | 0.41 | 0.89 | 11.11 | – |
| O=C(O)c1ccc2c3c(ncnc13)-c1ccccc1C2=O [Chemical 378] | 0.26 | 0.59 | 4.12 | – | – | – | – |
| CCN(CC)CCCC(C)Nc1c2ccc(Cl)cc2nc2ccc(OC)cc12 (stereo not drawn) [Chemical 423] | 0.56 | 0.64 | 2.39 | – | – | – | – |
| O=c1ccc2[n+]([O-])c3ccc(O)cc3oc-2c1 [Chemical 427] | 0.43 | 0.71 | 3.14 | – | – | – | – |
| Cc1cc(C)nc(NS(=O)(=O)c2ccc(N)cc2)n1 [Chemical 443] | – | – | – | 4.76 | 0.79 | 0.60 | – |
| c1ccc(-c2cccc(-c3ccccn3)n2)nc1 [Chemical 453] | 0.58 | – | 0.79 | – | – | – | MMTV fold induction relative to solvent control (MMTV promoter; [1]): 13.30 fold |
| c1ncncn1 [Chemical 473] | 0.50 | 0.87 | > 3 | – | – | – | – |
| O=S(=O)(O)c1ccc2c(N=Nc3ccc(S(=O)(=O)O)c4ccccc34)c(O)c(S(=O)(=O)O)cc2c1 [Chemical 512] | – | – | – | 5.26 | 0.68 | 0.81 | – |
| CC(C=O)=CC=CC(C)=CC=CC=C(C)C=CC=C(C)C=CC1=C(C)CCCC1(C)C [Chemical 519] | 0.68 | 2.76 | 1.15 | – | – | – | – |
| O=P(O)(O)Oc1c[nH]c2ccc(Br)c(Cl)c12 [Chemical 541] | – | – | – | 6.25 | 0.86 | 0.90 | – |
| CON(C)C(=O)Nc1ccc(Cl)cc1 [Chemical 552] | 5.31 | 0.86 | 0.81 | – | – | – | – |
| CC1=CC(=C(c2cc(C)c(O)c(C(=O)O)c2)c2c(Cl)ccc(S(=O)(=O)O)c2Cl)C=C(C(=O)O)C1=O [Chemical 556] | – | – | – | 33.33 | 0.87 | 0.73 | – |
| CC(=O)NCCCC[C@H](NC(C)=O)C(=O)O [Chemical 577] | – | – | – | 4.00 | 0.68 | 0.64 | – |
| O=C(O[C@H](C(=O)O)[C@H](OC(=O)c1ccccc1)C(=O)O)c1ccccc1 [Chemical 578] | – | – | – | 4.00 | 0.91 | 0.65 | – |
| COc1ccc(CC(=O)O)cc1OC [Chemical 629] | 1.05 | 2.48 | 0.85 | – | – | – | – |
| O=C(O)CC1NC(=O)NC1=O (stereo not drawn) [Chemical 630] | – | – | – | 3.57 | 0.74 | 0.70 | – |
| C[C@]12C=CC(=O)C=C1CC[C@@H]1[C@@H]2[C@@H](O)C[C@@]2(C)[C@H]1CC[C@]2(O)C(=O)CO [Chemical 764] | – | – | – | – | – | – | hGH fold inhibition relative to solvent control (hGH promoter): 4.54; MMTV fold inhibition relative to solvent control (MMTV promoter): 0.59 |
